Experimental data taken from patent publication US8524866B2, “Antibodies to the alpha-7 nicotinic receptors and methods of treating inflammatory disorders with the same” (The Feinstein Institute for Medical Research, priority 2005, dated 2013).

Molecular target: α-bungarotoxin-binding nicotinic receptors on primary human macrophages (Homo sapiens, UniProt P36544)
Sequence (P36544 23-502): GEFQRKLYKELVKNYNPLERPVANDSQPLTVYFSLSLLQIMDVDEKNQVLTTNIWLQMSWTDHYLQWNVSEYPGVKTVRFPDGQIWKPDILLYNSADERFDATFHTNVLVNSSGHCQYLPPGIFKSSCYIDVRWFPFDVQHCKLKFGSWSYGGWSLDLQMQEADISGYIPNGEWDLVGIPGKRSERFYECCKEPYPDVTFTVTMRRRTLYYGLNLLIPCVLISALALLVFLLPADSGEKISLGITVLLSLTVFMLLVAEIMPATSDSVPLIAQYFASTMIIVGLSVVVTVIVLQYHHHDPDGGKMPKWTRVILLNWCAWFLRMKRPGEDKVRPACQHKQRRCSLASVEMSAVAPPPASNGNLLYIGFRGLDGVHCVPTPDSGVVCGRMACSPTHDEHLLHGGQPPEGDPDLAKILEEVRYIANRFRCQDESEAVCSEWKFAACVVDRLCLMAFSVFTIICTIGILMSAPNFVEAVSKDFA

Compound	effect on intensity of α-bungarotoxin binding	binding on the macrophage surface
CN1CCCC1c1cccnc1 (centres unmarked) [Nicotine]	markedly reduced	
α-bungarotoxin		Strong binding
